The record followed here is publication PMC6394892, “The identification and use of robust transaminases from a domestic drain metagenome” (Green Chemistry, 2018).

Test [1] relates to T1, pQR2189.
T1 construct: N- and C-terminal His6 tags, pET-28a(+) NdeI/XhoI, expressed in E. coli BL21(DE3)
Briefly: HPLC initial rates, Michaelis-Menten fit. It is filed as biochemical, uncultured bacterium (household drain metagenome). The following applies: apparent, PLP 1 mM, KPi pH 8 50 mM, 20% DMSO, 35 °C. The text has this:
HPLC initial rates, Michaelis-Menten fit on pQR2189

In test [2] the test system is T1, pQR2189. Briefly: continuous UV absorbance at […] nm, Michaelis-Menten fit. In kind it is biochemical, uncultured bacterium (household drain metagenome). The following applies: apparent, PLP 0.1 mM, KPi pH 7.5 50 mM, 1% DMSO, 30 °C.

Molecules are shown by their SMILES.

A word on the Km: it is the substrate concentration at which the rate is half of its maximum.

`CC(C)(C)OC(=O)N1CCC(=O)C1` [18a, 1-Boc-3-pyrrolidinone]: the Km in test [1] (isopropylamine 200 mM) came out at 18.9 ± 3.1 mM.
On to `C[C@H](N)c1ccccc1` [(S)-7, (S)-α-methylbenzylamine], for which the Km in test [2] (pyruvate 1 mM) was 14.8 ± 3.2 mM.
Consider `CC(=O)C(=O)O` [compound 2, pyruvate], for which the Km in test [2] (amine donor (S)-7 5 mM) came out at 0.29 ± 0.08 mM.
Regarding `CC(C)N` [compound 27, isopropylamine], the Km in test [1] (1-Boc-3-pyrrolidinone 10 mM) worked out at 10.6 ± 1.6 mM.
